Results reported in patent publication US10806726B2, “Methods of using indazole-3-carb oxamides and their use as Wnt/B-catenin signaling pathway inhibitors” (Samumed, LLC, priority 2016, dated 2020).

Columns and labels:
[1] = tested on: collagenase-induced tendonitis of the Achilles tendon in Sprague Dawley rats; test: Rat Tendinopathy Model (2), collagenase-induced, tendon histology scoring; format: in vivo; conditions: for tendon histology score: topical once daily 21 days, total score of 20
Experimental: Fifty (50 μl) of Collagenase Type IA (10 mg/ml in PBS, pH 7.4, approximately 469 units/mg) (Catalog # C5138, Sigma, St. Louis, Mo.) was injected into the Achilles tendon of both ankles near the osteotendinous junction of male Sprague Dawley CD® IGS rats (CRL, Inc.), using insulin syringes with 28.5 G needle.
Rats were divided into 6 groups, with 6 animals per group except 8 animals in Group 2: Group 1 (sham injection), Group 2 (Collagenase-Vehicle with 0.5% Phx), Group 3 (Collagenase-compound 175 3 mg/mL with 0.5% BA), Group 4 (Collagenase-compound 175 10 mg/mL with 0.5% BA), Group 5 (Collagenase-compound 175 3 mg/mL with 0.5% Phx) and Group 6 (Collagenase-compound 175 10 mg/mL with 0.5% Phx). […] All rats were periodically observed for any pain, illnesses or abnormalities. At various time points, blood was collected for plasma in lithium heparin coated tubes by saphenous vein bleeding. For histology, rats were euthanized using isoflurane, tendons were isolated (n=8 tendons/group), fixed in 10% buffered formalin (Catalog # SF93-4, Fisher, Pittsburgh, Pa.) and H & E histology staining was performed at a secondary site (Pacific Pathology, San Diego, Calif.). For biochemical analysis, tendons were isolated (n=4 tendons/group), flash frozen in liquid nitrogen and then stored at −80° C. for subsequent biochemical analysis (not reported). Additionally, one (1) day after collagenase injection, 4 tendons were collected from Group 2 (vehicle) to observe the induction of inflammation (not reported).
There is biological variability in response to collagenase when injected directly into the tendons. […] Therefore, the entire tendon was isolated and placed in a tissue cassette and embedded in paraffin. Five (5) μm sections were generated with an average of 3 sections being fixed on one slide with a minimum of eight (8) slides per tendon and subjected to Hematoxylin & Eosin (H&E) staining. Slides were viewed under an upright light microscope (EVOS AMEX-1200) at a 10× magnification and scored blinded using a 1-4 scoring system of severity: 1-representing severe damage and 4—representing normal tendon, for Linearity of the fiber structure, Shape of the tendon cells, Density of the tendon cells, Inflammation, and Hemorrhage for a total score of twenty (20) using a modification of that described previously (Urdzikova et al., 2014—see Table 3). After the analysis was completed, the scorer was unblinded and scores for each criterion was annotated, totaled and total scores from each section were averaged together to generate a final score for each rat followed by averaging of scores for a given treatment group.
For tendon scoring, each section was analyzed following a 1-4 point scoring system as previously described (Urdzikova et al., 2014) with the exclusion of one variable, Thickness of the epitenon, due to difficulty in discerning the epitenon layer in the histology sections. In this study, a total of 94 sections were scored for Group 1 (sham injection, control group) and between 92-116 sections for Group 2 (Collagenase-Vehicle with 0.5% Phx); Group 3 (Collagenase-compound 175 3 mg/mL with 0.5% BA), Group 4 (Collagenase-compound 175 10 mg/mL with 0.5% BA), Group 5 (Collagenase-compound 175 3 mg/mL with 0.5% Phx) and Group 6 (Collagenase-compound 175 10 mg/mL with 0.5% Phx).

[2] = tested on: IL6 production in THP-1 cells; test: Cytokine Production Assay, LPS-induced IL6 in THP-1 cells; format: cell-based; conditions: Homo sapiens; THP-1, LPS 500 ng/ml 22 hours, 2 independent assays; read-out: average EC50, inhibition of IL6 production
Experimental: THP-1 cells were cultured in basal media with 1% FBS for 24 hours before the start of the assay. THP-1 cells were plated at 6×10e^4 cells/well and treated with DMSO (vehicle control) or compound 175 at 10 μM highest test concentration and 2 to 3.5-fold serial dilutions up to 8 concentrations (10, 3.5, 1, 0.5, 0.1, 0.035, 0.01, 0.005 μM). For the TNFα assay, 50 ng/mL of LPS was added to the wells after 2 hours to induce cytokine production, and cells were incubated for 5 hours at 37° C. For the IL6 assay, 500 ng/ml of LPS was added after 2 hours and cells were incubated for 22 hours at 37° C. Plates were spun in a centrifuge for 1 minute at 10,000 rpm and supernatants were collected for ELISA. Supernatants were diluted 1:1 for the TNFα assay and 1:4 for the IL6 assay using the assay medium. ELISA was performed using Human TNF-α ELISA MAX™ Deluxe (Catalog #430204, Biolegend, San Diego, Calif.) and Human IL-6 ELISA MAX™ Deluxe (Catalog #430504, Biolegend, San Diego, Calif.) kits. […] Following several washes to remove unbound avidin-HRP, the TMB substrate was added and the plates were read on the Cytation 3 plate reader (Biotek Inc., Winooski, Vt.) at an absorbance of 450 nm with correction at 570 nm. […] Inhibition profile and EC50 was calculated using Prism 5 (GraphPad Software Inc, La Jolla, Calif., USA). […]

Compound: COc1ccc(NC(=O)c2n[nH]c3ccc(-c4cncc(CN5CCCCC5)c4)cc23)cn1 [compound 175, N-(6-Methoxypyridin-3-yl)-5-(5-(piperidin-1-ylmethyl)pyridin-3-yl)-1H-indazole-3-carboxamide]
- blinded histology scoring of tendon injury and inflammation vs vehicle ([1]; 3 and 10 mg/mL, with either BA or Phx as preservative): significantly ameliorated collagenase-induced tendinopathy
- tendon histology score ([1]; Group 3, 3 mg/mL with 0.5% BA): 14.5 (±1.15)
- tendon histology score ([1]; Group 4, 10 mg/mL with 0.5% BA): 14.8 (±0.968)
- tendon histology score ([1]; Group 5, 3 mg/mL with 0.5% Phx): 15.1 (±0.506)
- tendon histology score ([1]; Group 6, 10 mg/mL with 0.5% Phx): 13.2 (±0.855)
- EC50 [2]: 356 to 629 nM
